# According to PubChem BioAssay AID1963959 (Molecular Pharmacology Branch, DTP, NCI, 2024):
# Test system: T-47D spheroids with HUVEC/MSC, viability
# Assay: Anticancer human tumor T-47D cell line growth inhibition [PI3K];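 also: spheroids exposed to agents for seven days before reading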;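 as to viability, T/C: percent of DMSO vehicle control luminescence so 100% = untreated growth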
# Conditions: for IC50: curve of first compound; for viability, T/C: stronger effect = lower value
# Procedure, shortened: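 Targeted small molecules plus PI3K inhibitors, half-log dose series from Cmax (default top 10 microM), were applied to heterotypic spheroids of cancer cells with HUVEC and MSCs. Viability indicated growth inhibition.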
# [1] = second compound 0.0316 µM, first compound 0.0316 µM
# [2] = second compound 0.0316 µM, first compound 0.1 µM
# [3] = second compound 0.0316 µM, first compound 0.316 µM
# [4] = second compound 0.0316 µM, first compound 1 µM
# [5] = second compound 0.0316 µM, first compound 3.16 µM
# [6] = second compound 0.0316 µM, first compound 10 µM
# [7] = second compound 0.1 µM, first compound 0.0316 µM
# [8] = second compound 0.1 µM, first compound 0.1 µM
# [9] = second compound 0.1 µM, first compound 0.316 µM
# [10] = second compound 0.1 µM, first compound 1 µM
# [11] = second compound 0.1 µM, first compound 3.16 µM
# [12] = second compound 0.1 µM, first compound 10 µM
# [13] = second compound 0.316 µM, first compound 0.0316 µM
# [14] = second compound 0.316 µM, first compound 0.1 µM
# [15] = second compound 0.316 µM, first compound 0.316 µM
# [16] = second compound 0.316 µM, first compound 1 µM
# [17] = second compound 0.316 µM, first compound 3.16 µM
# [18] = second compound 0.316 µM, first compound 10 µM
# [19] = second compound 1 µM, first compound 0.0316 µM
# [20] = second compound 1 µM, first compound 0.1 µM
# [21] = second compound 1 µM, first compound 0.316 µM
# [22] = second compound 1 µM, first compound 1 µM
# [23] = second compound 1 µM, first compound 3.16 µM
# [24] = second compound 1 µM, first compound 10 µM
smiles,measurement,setting,value
C=CC(=O)N1CCN(c2nc(=O)n(-c3c(C)ccnc3C(C)C)c3nc(-c4c(O)cccc4F)c(F)cc23)C(C)C1 (centres undefined) + Cc1nc(NC(=O)N2CCCC2C(N)=O)sc1-c1ccnc(C(C)(C)C(F)(F)F)c1,IC50,second compound 0.0316 µM,> 10 µM
same,IC50,second compound 0.1 µM,> 10 µM
same,IC50,second compound 0.316 µM,> 10 µM
same,IC50,second compound 1 µM,> 10 µM
same,IC50,second compound 3.16 µM,> 10 µM
same,IC50,second compound 10 µM,< 0.0316 µM
same,"viability, T/C",[1],112%
same,"viability, T/C",[2],92.4%
same,"viability, T/C",[3],102%
same,"viability, T/C",[4],84.8%
same,"viability, T/C",[5],88.8%
same,"viability, T/C",[6],98.5%
same,"viability, T/C",[7],105%
same,"viability, T/C",[8],89.7%
same,"viability, T/C",[9],97.2%
same,"viability, T/C",[10],77.8%
same,"viability, T/C",[11],116%
same,"viability, T/C",[12],106%
same,"viability, T/C",[13],83.8%
same,"viability, T/C",[14],96%
same,"viability, T/C",[15],86.7%
same,"viability, T/C",[16],99%
same,"viability, T/C",[17],91.5%
same,"viability, T/C",[18],99.4%
same,"viability, T/C",[19],96.1%
same,"viability, T/C",[20],98%
same,"viability, T/C",[21],84.1%
same,"viability, T/C",[22],100%
same,"viability, T/C",[23],99.4%
same,"viability, T/C",[24],101%
same,"viability, T/C","second compound 3.16 µM, first compound 0.0316 µM",65.1%
same,"viability, T/C","second compound 3.16 µM, first compound 0.1 µM",77.5%
same,"viability, T/C","second compound 3.16 µM, first compound 0.316 µM",77.9%
same,"viability, T/C","second compound 3.16 µM, first compound 1 µM",75.9%
same,"viability, T/C","second compound 3.16 µM, first compound 3.16 µM",85.4%
same,"viability, T/C","second compound 3.16 µM, first compound 10 µM",95.3%
same,"viability, T/C","second compound 10 µM, first compound 0.0316 µM",37%
same,"viability, T/C","second compound 10 µM, first compound 0.1 µM",36.7%
same,"viability, T/C","second compound 10 µM, first compound 0.316 µM",41.2%
same,"viability, T/C","second compound 10 µM, first compound 1 µM",45%
same,"viability, T/C","second compound 10 µM, first compound 3.16 µM",53%
same,"viability, T/C","second compound 10 µM, first compound 10 µM",59.5%
Cn1ncc(Cl)c1-c1cc(C(=O)NC(CN)Cc2cccc(F)c2)sc1Cl (centres undefined) + CC(Nc1ccc2c(c1)OCCn1cc(N3C(=O)OCC3C(F)F)nc1-2)C(N)=O,IC50,second compound 0.00316 µM,> 10 µM
same,IC50,second compound 0.01 µM,> 10 µM
same,IC50,second compound 0.0316 µM,> 10 µM
same,IC50,second compound 0.1 µM,> 10 µM
same,IC50,second compound 0.316 µM,> 10 µM
same,IC50,second compound 1 µM,< 0.0316 µM
same,"viability, T/C","second compound 0.00316 µM, first compound 0.0316 µM",91.4%
same,"viability, T/C","second compound 0.00316 µM, first compound 0.1 µM",86.4%
same,"viability, T/C","second compound 0.00316 µM, first compound 0.316 µM",80.5%
same,"viability, T/C","second compound 0.00316 µM, first compound 1 µM",81.8%
same,"viability, T/C","second compound 0.00316 µM, first compound 3.16 µM",73.7%
same,"viability, T/C","second compound 0.00316 µM, first compound 10 µM",81.5%
same,"viability, T/C","second compound 0.01 µM, first compound 0.0316 µM",91.2%
same,"viability, T/C","second compound 0.01 µM, first compound 0.1 µM",89.6%
same,"viability, T/C","second compound 0.01 µM, first compound 0.316 µM",82.9%
same,"viability, T/C","second compound 0.01 µM, first compound 1 µM",70.2%
same,"viability, T/C","second compound 0.01 µM, first compound 3.16 µM",65.5%
same,"viability, T/C","second compound 0.01 µM, first compound 10 µM",87.9%
same,"viability, T/C",[1],82.1%
same,"viability, T/C",[2],82.7%
same,"viability, T/C",[3],68.1%
same,"viability, T/C",[4],67.8%
same,"viability, T/C",[5],59.5%
same,"viability, T/C",[6],90.9%
same,"viability, T/C",[7],95.7%
same,"viability, T/C",[8],92.7%
same,"viability, T/C",[9],71.8%
same,"viability, T/C",[10],55.6%
same,"viability, T/C",[11],58.9%
same,"viability, T/C",[12],75%
same,"viability, T/C",[13],71.4%
same,"viability, T/C",[14],59.7%
same,"viability, T/C",[15],60.8%
same,"viability, T/C",[16],49.7%
same,"viability, T/C",[17],47.2%
same,"viability, T/C",[18],64.6%
same,"viability, T/C",[19],50.8%
same,"viability, T/C",[20],49.5%
same,"viability, T/C",[21],49.8%
same,"viability, T/C",[22],45.5%
same,"viability, T/C",[23],50.3%
same,"viability, T/C",[24],59.3%
